Converted amounts (≈) assume the structure as drawn. Read-outs that look alike come from different tables or passages of the source.
Tests used:
[1] = tested on: Mycobacterium smegmatis mc^2 155; experiment: microbe, parasite or virus in culture; assay type: cell-based
M. smegmatis mc^2 155 = experiment: Bacterial cell length by bright field microscopy; assay type: cell-based, Mycobacterium smegmatis
MtbFtsZ = target: T1, MtbFtsZ (Mycobacterium tuberculosis, UniProt P9WN95); assay type: biochemical
T1 construct: inferred from pET15 vector and Ni-NTA purification; made in house; host or cells: E. coli BL21 (DE3) Rosetta
T1 sequence (P9WN95 1-379): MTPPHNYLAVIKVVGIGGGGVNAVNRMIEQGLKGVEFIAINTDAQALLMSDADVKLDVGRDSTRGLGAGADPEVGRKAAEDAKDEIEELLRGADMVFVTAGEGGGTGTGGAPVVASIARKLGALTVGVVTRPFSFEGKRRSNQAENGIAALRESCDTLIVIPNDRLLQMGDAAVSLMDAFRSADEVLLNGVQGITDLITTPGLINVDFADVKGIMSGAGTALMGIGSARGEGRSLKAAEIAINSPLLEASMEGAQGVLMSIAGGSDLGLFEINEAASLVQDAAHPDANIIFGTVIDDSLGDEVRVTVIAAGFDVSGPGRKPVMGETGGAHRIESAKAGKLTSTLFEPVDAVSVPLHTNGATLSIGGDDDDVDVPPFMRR

[2] = tested on: FtsZ localization in M. smegmatis mc^2 155; experiment: FtsZ localization by immunofluorescence microscopy; assay type: cell-based, Mycobacterium smegmatis; settings: late logarithmic phase cells grown with compound for 4 h
Procedure: The effect of coumarins on the Z-ring formation of M. smegmatis was determined with immunofluoresence microscopy using anti-FtsZ antibodies (Dziedzic et al., [2010]). Late logarithmic phase cells were grown in the presence and absence of coumarins for 4 h. The cells were fixed with formaldehyde washed with phosphate buffer, and immuno-stained with polyclonal anti-FtsZ rabbit antibody (GeneTeX, USA) overnight at 4°C. Alexa fluor (488) goat anti-rabbit secondary antibody (Invitrogen, USA) was used for visualizing Z-rings. The nuclear material was visualized by using an anti-mountant containing DAPI. The cells were visualized in 63 X objective using a Carl-Zeiss fluorescence Microscope (Axio Imager 2 for Life Science Research, Germany). The images were visualized and processed using ZEN image processing software.

MtbFtsZ wild type [3] = target: T2, MtbFtsZ wild type (Mycobacterium tuberculosis, UniProt P9WN95); assay type: biochemical
T2 construct: inferred from pET15 vector and Ni-NTA purification; made in house; host or cells: E. coli BL21 (DE3) Rosetta
T2 sequence (P9WN95 1-379): T1 sequence (P9WN95 1-379)

MtbFtsZ wild type [4] = target: T2, MtbFtsZ wild type; assay type: biochemical; remark: listed apart in the source
bacteria = tested on: bacteria; design: method as in Jaiswal et al., 2007; Bhattacharya et al., 2013; settings: ref Jaiswal et al., 2007; Bhattacharya et al., 2013; cited from earlier work
[5] = tested on: Mycobacterium tuberculosis H37Rv; design: method as in Rezayan et al., 2012; Upadhyay et al., 2012; settings: ref Rezayan et al., 2012, Upadhyay et al.; cited from earlier work
[6] = Mycolicibacterium smegmatis, MC^2155, 48 h, M. smegmatis mc^2 155, MABA, 37°C, 48 h, read-out: MIC
[7] = Mycolicibacterium smegmatis, MC^2155, 48 h
[8] = M. smegmatis mc^2 155, MABA, 37°C, 48 h

In the case of `O=c1cc(O)c2ccccc2o1` [4-Hydroxycoumarin], the MIC [1, 6] is reported as 150 ± 7.4 µM (≈ 24.4 µg/mL).
`Cc1cc(=O)oc2cc(O)ccc12` [4-Methylumbelliferone] showed an MIC [1, 6] of 42.5 ± 2.4 µM (≈ 7.49 µg/mL).
`Cc1ccc2oc(=O)ccc2c1` [6-Methylcoumarin] gave an MIC [1, 6] of 46.8 ± 4.3 µM (≈ 7.5 µg/mL).
`CCN(CC)c1ccc2c(C)cc(=O)oc2c1` [7-Diethylamino-4-methylcoumarin] gave an MIC [1, 7] of 70.2 ± 6.2 µM (≈ 16.2 µg/mL).
With `Cc1cc(=O)oc2cc(N(C)C)ccc12` [7-Dimethyl-4-methylcoumarin] the “increase of bacterial length” value (M. smegmatis mc^2 155; cells treated with 50 μM, versus untreated cells) was 4 fold, the maximum bacterial length (M. smegmatis mc^2 155; cells treated with 50 μM, untreated 4.48 ± 1.25 μm) was 15.2 ± 3.5 μm and the “protofilament formation (TEM)” value (MtbFtsZ) was “did not allow the formation of network for a protofilament”. For the same molecule, the “FtsZ localization (immunofluorescence)” value [2] was “localization of MtbFtsZ was disrupted”, the MIC [1, 8] was 36.8 ± 7.1 µM (≈ 7.48 µg/mL) and the MIC ([1]; M. smegmatis mc^2 155, MABA, 37°C, 48 h, listed as 7-Dimethyl-4-methyl coumarin, read-out: MIC) was 36.8 µM (≈ 7.48 µg/mL). The MIC [1, 6] was 38.7 µM (≈ 7.87 µg/mL).
With `COc1ccc2cc3[n+](cc2c1OC)CCc1cc2c(cc1-3)OCO2` [Berberine] the “inhibition of the polymerization activity of the protein” value (MtbFtsZ wild type [3]) was 82% ± 1.4 and the “inhibition of the GTPase activity of the protein” value (MtbFtsZ wild type [4]) was 75% ± 2.5.
In the case of `O=c1ccc2ccccc2o1` [Coumarin], the MIC [1, 6] is reported as 214 ± 8.7 µM (≈ 31.2 µg/mL).
`O=c1ccc2ccc(O)c(O)c2o1` [Daphnetin] showed an MIC [1, 7] of 48.2 ± 6.3 µM (≈ 8.59 µg/mL).
In the case of `O=c1oc2c(O)c(O)cc3c(=O)oc4c(O)c(O)cc1c4c23` [Ellagic acid], the MIC [1, 8] is reported as 50 ± 2.4 µM (≈ 15.1 µg/mL), the MIC ([1]; M. smegmatis mc^2 155, MABA, 37°C, 48 h, listed as ellagic acid, read-out: MIC) is reported as 50 µM (≈ 15.1 µg/mL) and the MIC [1, 6] is reported as 25 µM (≈ 7.55 µg/mL).
In the case of `O=c1ccc2cc(O)c(O)cc2o1` [Esculetin], the “increase of bacterial length” value (M. smegmatis mc^2 155) is reported as 4 fold, the maximum bacterial length (M. smegmatis mc^2 155) is reported as 17.85 ± 4.5 μm and the “protofilament formation (TEM)” value (MtbFtsZ) is reported as “did not allow the formation of network for a protofilament”. For the same molecule, the MIC [1, 7] was 48.2 ± 5.7 µM (≈ 8.59 µg/mL).
For `CC1=CC(=O)c2c(O)cccc2C1=O` [Plumbagin], the “increase of the length of bacteria” value (bacteria) is given as 7 fold.
Work on `CO[C@H]1/C=C/O[C@@]2(C)Oc3c(C)c(O)c4c(O)c(c(/C=N/N5CCN(C)CC5)c(O)c4c3C2=O)NC(=O)/C(C)=C\C=C\[C@H](C)[C@H](O)[C@@H](C)[C@@H](O)[C@@H](C)[C@H](OC(C)=O)[C@@H]1C` [Rifampicin, reference compound] yielded an MIC [1, 6] of 3.9 µM (≈ 3.21 µg/mL).
For `CC(C)c1c(O)ccc2c1CC[C@H]1C(C)(C)CCC[C@]21C` [Totarol], the “inhibition of the polymerization activity of the protein” value (MtbFtsZ wild type [3]) is listed as 74% ± 2, the “increase of the length of bacteria” value (bacteria) is listed as 5 fold and the “inhibition of the GTPase activity of the protein” value (MtbFtsZ wild type [4]) is listed as 68% ± 3.1.
For `O=c1ccc2ccc(O)cc2o1` [Umbelliferone], the MIC [5] is listed as 58.3 µg/mL (≈ 360 µM) and the MIC [1, 7] is listed as 46.2 ± 3.2 µM (≈ 7.49 µg/mL).
In the case of `COc1cc2ccc(=O)oc2cc1O` [scopoletin, reference compound], the MIC [5] is listed as 42 µg/mL (≈ 219 µM).
With `[H]/N=C(/N)N[C@H]1[C@H](O)[C@@H](O)[C@H](O[C@@H]2O[C@@H](C)[C@](O)(C=O)[C@H]2O[C@@H]2O[C@@H](CO)[C@H](O)[C@@H](O)[C@@H]2NC)[C@@H](N/C(N)=N\[H])[C@@H]1O` [streptomycin, reference compound] the MIC [1, 6] was 11.2 µM (≈ 6.5 µg/mL).
